Measurements from ChEMBL document CHEMBL5104138, “Discovery of pyridyl urea sulfonamide inhibitors of NaV1.7” (Bioorg Med Chem Lett, 2022).

Key:
[1] = target: T1, Sodium channel protein type 9 subunit alpha (Homo sapiens, UniProt Q15858); test: Inhibition of human Nav1.7 by PatchXpress assay
Target sequence in this assay (Q15858 whole entry): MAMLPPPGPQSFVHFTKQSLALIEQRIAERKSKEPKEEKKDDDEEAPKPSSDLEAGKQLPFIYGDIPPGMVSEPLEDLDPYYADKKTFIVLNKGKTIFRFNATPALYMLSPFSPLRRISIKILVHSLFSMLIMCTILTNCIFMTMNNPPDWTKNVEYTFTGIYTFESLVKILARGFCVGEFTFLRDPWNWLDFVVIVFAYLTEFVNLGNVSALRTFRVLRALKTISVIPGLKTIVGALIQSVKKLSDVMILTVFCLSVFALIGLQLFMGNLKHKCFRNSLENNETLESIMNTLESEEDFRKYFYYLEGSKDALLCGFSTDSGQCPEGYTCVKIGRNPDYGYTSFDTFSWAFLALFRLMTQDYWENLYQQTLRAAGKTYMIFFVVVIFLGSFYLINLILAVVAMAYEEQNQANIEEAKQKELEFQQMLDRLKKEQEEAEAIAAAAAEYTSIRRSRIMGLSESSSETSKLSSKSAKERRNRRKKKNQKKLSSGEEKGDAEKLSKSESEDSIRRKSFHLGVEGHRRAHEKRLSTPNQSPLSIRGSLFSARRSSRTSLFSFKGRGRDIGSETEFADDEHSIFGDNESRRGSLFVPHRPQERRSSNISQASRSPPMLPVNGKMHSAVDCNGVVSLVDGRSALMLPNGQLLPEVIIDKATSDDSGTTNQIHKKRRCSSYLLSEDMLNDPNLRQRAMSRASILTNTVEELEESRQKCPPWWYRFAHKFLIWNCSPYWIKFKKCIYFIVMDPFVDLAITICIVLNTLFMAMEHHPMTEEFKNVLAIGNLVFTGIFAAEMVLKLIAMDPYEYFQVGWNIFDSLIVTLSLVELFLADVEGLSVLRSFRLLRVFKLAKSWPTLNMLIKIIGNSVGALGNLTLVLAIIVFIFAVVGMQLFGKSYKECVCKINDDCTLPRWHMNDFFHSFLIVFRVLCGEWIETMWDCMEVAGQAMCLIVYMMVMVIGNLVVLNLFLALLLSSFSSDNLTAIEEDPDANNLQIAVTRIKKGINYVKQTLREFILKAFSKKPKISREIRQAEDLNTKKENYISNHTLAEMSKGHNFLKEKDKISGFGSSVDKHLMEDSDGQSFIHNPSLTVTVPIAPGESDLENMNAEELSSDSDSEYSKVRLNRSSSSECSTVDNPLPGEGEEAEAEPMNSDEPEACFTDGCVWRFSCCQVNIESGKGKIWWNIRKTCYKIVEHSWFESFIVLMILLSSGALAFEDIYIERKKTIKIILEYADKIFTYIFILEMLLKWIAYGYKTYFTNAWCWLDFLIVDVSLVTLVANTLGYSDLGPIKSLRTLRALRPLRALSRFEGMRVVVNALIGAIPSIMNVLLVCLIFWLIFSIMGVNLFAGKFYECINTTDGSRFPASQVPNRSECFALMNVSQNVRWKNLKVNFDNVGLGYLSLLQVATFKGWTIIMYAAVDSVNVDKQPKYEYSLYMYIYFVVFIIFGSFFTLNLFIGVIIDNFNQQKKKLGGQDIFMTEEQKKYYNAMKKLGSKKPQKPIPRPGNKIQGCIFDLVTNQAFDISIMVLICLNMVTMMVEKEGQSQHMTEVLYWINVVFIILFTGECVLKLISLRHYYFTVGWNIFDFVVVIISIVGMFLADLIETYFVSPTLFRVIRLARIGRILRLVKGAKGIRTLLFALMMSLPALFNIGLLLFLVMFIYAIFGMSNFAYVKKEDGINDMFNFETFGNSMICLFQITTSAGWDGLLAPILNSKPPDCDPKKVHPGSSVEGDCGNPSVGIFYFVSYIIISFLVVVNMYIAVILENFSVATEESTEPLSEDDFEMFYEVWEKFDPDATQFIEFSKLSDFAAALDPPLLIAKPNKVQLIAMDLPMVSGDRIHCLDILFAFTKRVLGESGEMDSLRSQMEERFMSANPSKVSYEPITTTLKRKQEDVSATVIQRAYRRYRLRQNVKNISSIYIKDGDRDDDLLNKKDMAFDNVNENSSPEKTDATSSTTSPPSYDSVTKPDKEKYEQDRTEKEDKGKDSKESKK

[2] = Passive permeability of compound; format: ADME; settings: not told; read-out: permeability
[3] = Clearance in rat at 0.5 mg/kg, iv; settings: in vivo
[4] = target: T2, Cytochrome P450 3A4 (Homo sapiens, UniProt P08684); test: Time dependent inhibition of CYP3A4 in human liver microsomes using midazolam as substrate incubated for 30 mins; format: ADME, Microsome
[5] = target: T2, Cytochrome P450 3A4; test: Time dependent inhibition of CYP3A4 in human liver microsomes using midazolam as substrate preincubated for 30 mins followed by substrate addition; format: ADME, Microsome
[6] = rat, in vivo, iv, 0.5 mg/kg
Description: Unbound clearance in rat at 0.5 mg/kg, iv

[7] = Lipophilicity, logD of compound at pH 7.4; format: physicochemical; settings: buffer
[8] = target: T3, Cytochrome P450 2D6 (Homo sapiens, UniProt P10635); test: Time dependent inhibition of CYP2D6 (unknown origin) preincubated for 30 mins followed by substrate addition; format: ADME
[9] = target: T3, Cytochrome P450 2D6; test: Time dependent inhibition of CYP2D6 (unknown origin) incubated for 30 mins; format: ADME
[10] = test system: Mus musculus; test: Antinociceptive activity in mouse model of Histamine-induced itching assessed as reduction in scratching bouts at 30 mg/kg, po relative to control; format: functional; design: scale not given: the % may be the effect or the level left
[11] = target: T1, Sodium channel protein type 9 subunit alpha; test: Inhibition of human Nav1.7 at 1 uM by PatchXpress assay relative to control
Target sequence in this assay (Q15858 whole entry, looked up): as the sequence (Q15858 whole entry) above

T2 sequence (P08684 whole entry): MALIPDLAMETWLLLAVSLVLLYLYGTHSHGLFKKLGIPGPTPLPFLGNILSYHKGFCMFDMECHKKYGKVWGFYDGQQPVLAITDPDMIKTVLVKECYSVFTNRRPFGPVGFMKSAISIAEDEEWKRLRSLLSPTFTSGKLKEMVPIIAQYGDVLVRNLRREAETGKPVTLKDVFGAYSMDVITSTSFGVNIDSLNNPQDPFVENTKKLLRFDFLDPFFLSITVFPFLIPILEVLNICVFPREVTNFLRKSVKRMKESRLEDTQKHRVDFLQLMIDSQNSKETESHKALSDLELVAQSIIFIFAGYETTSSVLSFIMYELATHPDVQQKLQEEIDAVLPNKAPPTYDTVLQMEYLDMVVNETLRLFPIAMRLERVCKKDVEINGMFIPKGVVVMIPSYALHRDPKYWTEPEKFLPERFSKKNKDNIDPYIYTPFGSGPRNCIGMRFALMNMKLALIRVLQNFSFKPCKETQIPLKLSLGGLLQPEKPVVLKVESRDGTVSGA
T3 sequence (P10635 whole entry): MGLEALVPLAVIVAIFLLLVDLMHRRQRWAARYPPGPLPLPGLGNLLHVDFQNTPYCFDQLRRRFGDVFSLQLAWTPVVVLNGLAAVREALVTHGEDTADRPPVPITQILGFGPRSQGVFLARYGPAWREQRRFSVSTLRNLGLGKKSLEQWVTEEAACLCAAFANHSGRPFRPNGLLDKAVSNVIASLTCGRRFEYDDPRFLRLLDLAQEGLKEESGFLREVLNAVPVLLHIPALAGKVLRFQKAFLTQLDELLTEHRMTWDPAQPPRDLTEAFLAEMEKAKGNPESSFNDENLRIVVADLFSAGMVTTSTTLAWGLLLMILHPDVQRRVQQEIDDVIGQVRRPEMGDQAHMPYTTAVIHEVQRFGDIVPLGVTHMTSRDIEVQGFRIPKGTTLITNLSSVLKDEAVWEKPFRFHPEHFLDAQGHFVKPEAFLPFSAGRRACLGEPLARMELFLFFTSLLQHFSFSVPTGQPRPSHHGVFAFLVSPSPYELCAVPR

| IC50 [1] | clearance [3] | IC50 [4] | IC50 [5] | CL free [6] | logD [7] | SMILES | also measured |
| --- | --- | --- | --- | --- | --- | --- | --- |
| 2.91 µM | – | – | – | – | – | COc1cc(-c2ccc(Cl)c(C)c2)ccc1N(C(C)=O)c1ccc(S(=O)(=O)Nc2ccon2)cn1 | – |
| 0.008 µM | 88.3 mL/min/kg | – | – | – | – | COc1cc(-c2cccc(C(F)(F)F)c2)c(Cl)cc1N(C(N)=O)c1ccc(S(=O)(=O)Nc2ccon2)cn1 | Papp [2]: < 1.5 ×10⁻⁶ cm/s |
| – | – | 12 µM | > 50 µM | – | – | CNC(=O)N(c1ccc(S(=O)(=O)Nc2ccon2)cn1)c1cc(Cl)c(-c2ccc(F)c(C(F)(F)F)c2)cc1OC | – |
| – | 33.3 mL/min/kg | > 50 µM | > 50 µM | 4770 mL/min/kg | 0.7 | CNC(=O)N(c1ccc(S(=O)(=O)Nc2ccon2)cn1)c1cc(Cl)c(-c2cc(F)c(F)c(F)c2)cc1OC | – |
| – | – | 35 µM | > 50 µM | – | – | CNC(=O)N(c1ccc(S(=O)(=O)Nc2ccon2)cn1)c1cc(Cl)c(-c2cccc(OCC(F)(F)F)c2)cc1OC | – |
| – | 48.3 mL/min/kg | > 50 µM | > 50 µM | 7070 mL/min/kg | – | CNC(=O)N(c1ccc(S(=O)(=O)Nc2ccon2)cn1)c1cc(F)c(-c2ccc(F)c(OC(F)(F)F)c2)cc1OC | – |
| 0.017 µM | – | 5 µM | > 50 µM | – | – | CNC(=O)N(c1ccc(S(=O)(=O)Nc2ccon2)cn1)c1cc(Cl)c(-c2cccc(C(F)(F)F)c2)cc1OC | – |
| – | 11.7 mL/min/kg | > 50 µM | > 50 µM | 1150 mL/min/kg | 1.8 | CNC(=O)N(c1ccc(S(=O)(=O)Nc2cccnn2)cn1)c1cc(F)c(-c2ccc(F)c(OC(F)(F)F)c2)cc1OC | IC50 [8]: 19 µM; IC50 [9]: 30 µM |
| 0.023 µM | 91.7 mL/min/kg | > 50 µM | > 50 µM | – | 0.9 | CNC(=O)N(c1ccc(S(=O)(=O)Nc2ccon2)cn1)c1cc(Cl)c(-c2ccc(F)c(OCC(F)(F)F)c2)cc1OC | – |
| – | – | – | – | – | – | CN(C)CCOC(c1ccccc1)c1ccccc1 [DIPHENHYDRAMINE] | Activity [10]: 73% |
| – | 2.5 mL/min/kg | > 50 µM | > 50 µM | 817 mL/min/kg | 1.2 | CNC(=O)N(c1ccc(S(=O)(=O)Nc2ncccn2)cn1)c1cc(F)c(-c2ccc(F)c(C(F)(F)F)c2)cc1OC | – |
| – | – | – | – | – | – | CNC(=O)C(c1ccc(S(=O)(=O)Nc2ccon2)cn1)c1ccc(-c2ccc(Cl)c(C)c2)cc1OC (configuration not stated) | inhibition [11]: 4.9% |
| – | – | 11 µM | > 50 µM | – | 1.6 | CNC(=O)N(c1ccc(S(=O)(=O)Nc2ncccn2)cn1)c1cc(Cl)c(-c2ccc(F)c(OC(F)(F)F)c2)cc1OC | – |
